Results published in ChEMBL document CHEMBL4421717, “Antagonists and agonists of bitter taste receptors and uses thereof” (2012).
Active and inactive are the calls of the source. No cut-off for these calls is given here.

Assays:
Assay type in all cases: functional, cell-based
[1] = molecular target: T1, Taste receptor type 2 member 30 (Homo sapiens) (UniProt P59541); experiment: Antagonist activity at recombinant human N-terminal rat ST3 receptor-fused TAS2R47 expressed in HEK293T cells co-expressing Galpha16gust44 assessed as inhibition of brucine-induced intracellular calcium level at 100 uM by FLIPR assay
T1 sequence (whole entry): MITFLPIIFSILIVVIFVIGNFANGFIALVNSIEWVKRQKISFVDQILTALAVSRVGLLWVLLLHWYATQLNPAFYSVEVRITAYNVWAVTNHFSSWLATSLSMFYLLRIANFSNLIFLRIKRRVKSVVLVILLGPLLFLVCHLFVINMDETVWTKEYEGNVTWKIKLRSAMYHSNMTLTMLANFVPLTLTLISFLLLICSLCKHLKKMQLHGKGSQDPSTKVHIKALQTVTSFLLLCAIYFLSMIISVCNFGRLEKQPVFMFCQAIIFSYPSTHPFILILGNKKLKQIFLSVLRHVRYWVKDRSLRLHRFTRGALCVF

[2] = molecular target: Taste receptor type 2 member 40 (Homo sapiens) (UniProt P59535); experiment: Antagonist activity at recombinant human N-terminal rat ST3 receptor-fused TAS2R40 expressed in HEK293T cells co-expressing Galpha16gust44 assessed as inhibition of cohumulone-induced intracellular calcium level at 100 uM by FLIPR assay
Sequence of Taste receptor type 2 member 40 (Homo sapiens) (P59535 whole entry, the tested form may be a part): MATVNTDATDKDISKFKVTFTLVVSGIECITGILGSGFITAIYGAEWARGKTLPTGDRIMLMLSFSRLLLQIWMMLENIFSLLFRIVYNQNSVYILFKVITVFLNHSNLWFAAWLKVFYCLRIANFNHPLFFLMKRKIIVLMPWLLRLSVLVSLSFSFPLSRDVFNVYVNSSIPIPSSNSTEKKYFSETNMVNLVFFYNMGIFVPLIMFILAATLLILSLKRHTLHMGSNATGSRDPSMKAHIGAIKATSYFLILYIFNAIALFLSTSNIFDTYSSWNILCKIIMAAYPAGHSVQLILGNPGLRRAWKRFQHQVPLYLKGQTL

[3] = molecular target: T2, Taste receptor type 2 member 38 (Homo sapiens) (UniProt P59533); experiment: Activity at recombinant human N-terminal rat ST3 receptor-fused TAS2R38 expressed in HEK293T cells co-expressing Galpha16gust44 assessed as effect on phenylthiocarbamide-induced intracellular calcium level at 100 uM by FLIPR assay
T2 sequence (whole entry): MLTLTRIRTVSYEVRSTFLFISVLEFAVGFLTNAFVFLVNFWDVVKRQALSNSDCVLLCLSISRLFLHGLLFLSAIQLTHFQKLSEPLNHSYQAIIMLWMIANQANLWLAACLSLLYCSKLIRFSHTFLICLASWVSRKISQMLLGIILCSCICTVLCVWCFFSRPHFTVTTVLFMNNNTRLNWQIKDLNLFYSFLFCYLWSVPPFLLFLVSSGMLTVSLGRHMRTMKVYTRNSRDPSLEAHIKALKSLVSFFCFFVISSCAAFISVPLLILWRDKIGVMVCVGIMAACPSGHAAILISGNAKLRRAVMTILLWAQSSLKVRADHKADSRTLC

[4] = molecular target: T3, Taste receptor type 2 member 46 (Homo sapiens) (UniProt P59540); experiment: Agonist activity at recombinant human N-terminal rat ST3 receptor-fused TAS2R46 expressed in HEK293T cells co-expressing Galpha16gust44 assessed as effect on intracellular calcium level at 100 uM by FLIPR assay
T3 sequence (whole entry): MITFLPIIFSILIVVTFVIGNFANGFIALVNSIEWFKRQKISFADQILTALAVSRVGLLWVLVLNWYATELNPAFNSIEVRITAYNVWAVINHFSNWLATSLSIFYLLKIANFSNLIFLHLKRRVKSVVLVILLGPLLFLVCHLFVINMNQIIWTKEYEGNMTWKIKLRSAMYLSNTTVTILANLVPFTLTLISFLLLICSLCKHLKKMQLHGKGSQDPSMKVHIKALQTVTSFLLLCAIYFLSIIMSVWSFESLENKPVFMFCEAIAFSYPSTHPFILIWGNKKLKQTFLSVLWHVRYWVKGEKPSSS

[5] = molecular target: T4, Taste receptor type 2 member 4 (Homo sapiens) (UniProt Q9NYW5); experiment: Activity at recombinant human N-terminal rat ST3 receptor-fused TAS2R4 expressed in HEK293T cells co-expressing Galpha16gust44 assessed as effect on colchicine-induced intracellular calcium level at 100 uM by FLIPR assay
T4 sequence (whole entry): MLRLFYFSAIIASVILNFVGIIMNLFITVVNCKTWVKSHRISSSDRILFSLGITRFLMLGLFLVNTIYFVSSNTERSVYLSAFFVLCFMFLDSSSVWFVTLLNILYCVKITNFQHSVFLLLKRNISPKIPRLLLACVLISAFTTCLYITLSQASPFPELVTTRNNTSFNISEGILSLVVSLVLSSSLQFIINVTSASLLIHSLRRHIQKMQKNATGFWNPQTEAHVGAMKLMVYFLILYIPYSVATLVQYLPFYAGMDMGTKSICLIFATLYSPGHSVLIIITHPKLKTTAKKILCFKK

[6] = molecular target: T5, Taste receptor type 2 member 9 (Homo sapiens) (UniProt Q9NYW1); experiment: Activity at recombinant human N-terminal rat ST3 receptor-fused TAS2R9 expressed in HEK293T cells co-expressing Galpha16gust44 assessed as effect on ofloxacin-induced intracellular calcium level at 100 uM by FLIPR assay
T5 sequence (whole entry): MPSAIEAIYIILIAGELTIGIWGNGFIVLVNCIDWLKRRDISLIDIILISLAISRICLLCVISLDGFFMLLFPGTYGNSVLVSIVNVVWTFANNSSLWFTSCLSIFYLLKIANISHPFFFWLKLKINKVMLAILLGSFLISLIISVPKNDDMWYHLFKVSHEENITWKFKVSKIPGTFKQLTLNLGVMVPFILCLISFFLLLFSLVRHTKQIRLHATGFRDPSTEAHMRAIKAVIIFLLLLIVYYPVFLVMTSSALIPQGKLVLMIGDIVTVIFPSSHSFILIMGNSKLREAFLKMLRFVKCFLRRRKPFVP

[7] = molecular target: T6, Taste receptor type 2 member 13 (Homo sapiens) (UniProt Q9NYV9); experiment: Activity at recombinant human N-terminal rat ST3 receptor-fused TAS2R13 expressed in HEK293T cells co-expressing Galpha16gust44 assessed as effect on denatonium benzoate-induced intracellular calcium level at 100 uM by FLIPR assay
T6 sequence (whole entry): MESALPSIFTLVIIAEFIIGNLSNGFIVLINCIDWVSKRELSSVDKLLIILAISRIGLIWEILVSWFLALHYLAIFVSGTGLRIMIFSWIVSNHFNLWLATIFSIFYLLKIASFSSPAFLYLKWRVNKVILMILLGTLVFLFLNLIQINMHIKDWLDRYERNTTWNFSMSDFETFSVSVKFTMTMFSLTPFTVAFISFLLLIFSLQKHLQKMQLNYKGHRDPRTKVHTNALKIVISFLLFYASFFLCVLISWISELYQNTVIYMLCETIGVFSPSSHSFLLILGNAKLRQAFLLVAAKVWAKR

[8] = molecular target: T7, Taste receptor type 2 member 46 (Homo sapiens, UniProt P59540); experiment: Antagonist activity at recombinant human N-terminal rat ST3 receptor-fused TAS2R46 expressed in HEK293T cells co-expressing Galpha16gust44 assessed as inhibition of 3 uM strychnine-induced intracellular calcium level 100 uM by FLIPR assay
T7 sequence (P59540 whole entry): T3 sequence (whole entry)

| SMILES | inhibition [1] | inhibition [2] | Activity [3] | Activity [4] | Activity [5] | Activity [6] | Activity [7] | IC50 [8] [µM] |
| --- | --- | --- | --- | --- | --- | --- | --- | --- |
| C/C1=C\C[C@H](O)[C@@H](C)C[C@H]2OC(=O)[C@@H](C)C2CC1 (stereo partly specified) | 100% | Active | inactive | Active | inactive | inactive | inactive | 84.9 |
| C/C1=C\C[C@H](O)/C(C)=C/[C@H]2OC(=O)[C@@H](C)C2CC1 (stereo partly specified) | Active | Active | inactive | inactive | inactive | inactive | inactive | 15.3 |
